From paper PMC3549755, “A comparison of the ability of rilpivirine (TMC278) and selected analogues to inhibit clinically relevant HIV-1 reverse transcriptase mutants” (Retrovirology, 2012)
Read-outs that look alike come from different tables or passages of the source.

Assays:
[1] = system: viral vectors that replicate using WT HIV reverse transcriptase; test: single-round infectivity assay, luciferase reporter, vector with WT RT; assay type: cell-based, HIV-1; settings: SD in parentheses
Source text: (§1) We examined the effects of rilpivirine and the analogues on HIV-1 replication using a previously described assay and report the concentrations at which luciferase reporter activity was reduced by half relative to uninhibited controls (EC50) with standard deviations in parentheses. In the assay, viral vectors that replicate using WT HIV reverse transcriptase or one of several mutants (L100I, K103N, V106A, E138K, Y181C, Y188L, H221Y and the double mutant K103N/Y181C) were used to infect cells in a single round assay. These mutants were chosen either because they are known NNRTI resistance mutations (L100I, K103N, Y181C, and the K103N/Y181C double mutant), they were selected in patients in rilpivirine clinical trials (E138K and H221Y), or they are positioned to make significant Van der Waals contacts with rilpivirine (V106A and Y188L). All compounds were initially screened against a panel that included at least one RT mutant from all three groups (WT, K103N, E138K, Y181C and Y188L). The cytotoxicity of the compounds was also determined to establish the therapeutic index of each of the compounds.
(§2) Procedures for virion production and cell-based assay have been reported. Briefly, all cell cultures were maintained in Dulbecco’s modified Eagle’s medium (Invitrogen, Carlsbad, CA) with 5% (v/v) fetal bovine serum, 5% newborn calf serum, penicillin (50 units/mL) and streptomycin (50 μg/mL) (Quality Biological, Gaithersburg, MD). […]. Transfected cells were incubated at 37°C for 8 hrs, washed twice with PBS, fresh media was added and the cells were returned to the incubator for 48 hrs. The pNLNgoMIVR^+ΔEnv.LUC plasmid encodes the HIV-1 genome with an Env deletion and either WT HIV-1 RT, or one of the following mutants: L100I, K103N, V106A, E138K, Y181C, Y188L, H221Y, or K103N/Y181C. Supernatants from each plate were clarified by low-speed centrifugation (3,000xg for 20 min), then treated with 200 U DNase I (Roche Applied Science, Mannheim, Germany) at room temperature for 3 hours. Viral supernatants were stored at −20°C until used.
(§3) One day prior to infection, 100 μL of human osteosarcoma (HOS) cells were added to each well of a 96-well plate at a density of 4x10^4 cells/mL. Plates were incubated overnight at 37°C. On the day of infection, 10X drug stocks were prepared by serial dilution in media from an initial 10 mM stock solution in DMSO. Cells in the 96-well plate were pre-treated by the addition of 22 μL of the appropriate drug stock and returned to the incubator for 3 hours. Thawed virus stocks were diluted 1:2 in media, then 100 μL of virus was added to the pre-treated cells, bringing the final drug concentrations to 0.1 nM to 100 nM, with DMSO-treated cells (no drug) serving as a reference. In addition, 12 wells of cells treated with media and no virus served as negative controls. Plates were returned to the incubator for an additional 42 hours, at which time the luciferase activity was determined using Steady-Lite Plus kits (PerkinElmer, Waltham, MA). Background luciferase activity, as measured for the negative controls, was subtracted from the activities measured for each infected well. Drug-free, DMSO-treated wells were normalized to 100% infectivity. Infectivity at each drug concentration was determined as a percentage of these drug-free infections. Drug concentration versus percent infectivity was plotted for each RT-inhibitor combination, and the data were fit to a four-parameter sigmoidal curve using KaleidaGraph 4.0 (Synergy Software, Reading, PA). The inflection point of each curve is reported as the IC50. All values are the mean of triplicate infections.

[2] = system: viral vector with E138K mutant HIV-1 RT; test: single-round infectivity assay, luciferase reporter, E138K RT vector; assay type: cell-based; settings: for EC50: Human immunodeficiency virus 1, HOS cells, reduction of luciferase reporter activity, SD in parentheses; for loss of potency against E138K: compared with rilpivirine (1)
Source text: as §1, §2, §3

[3] = system: viral vector with H221Y mutant HIV-1 RT; test: single-round infectivity assay, luciferase reporter, H221Y RT vector; assay type: cell-based; settings: Human immunodeficiency virus 1; broader panel, SD in parentheses
Source text: as §1, §2, §3

[4] = cytotoxicity assay (ATP-Lite cell viability); assay type: cell-based, human; settings: human, HOS cells, 48 hours, SD in parentheses
Method: (§4) One day prior to treatment, HOS cells were prepared in 96-well plates as described for the infectivity assays, except that 12 wells per plate were treated with cell-free media to serve as negative controls. The following day, serial dilutions of drug stocks were prepared in media from 10 mM stocks in DMSO. Each well received 11 μL of the appropriate drug concentration or DMSO-treated, drug-free media. Final drug concentrations ranged from 0.5 μM to 300 μM. The drug-free wells served as references. Plates were then incubated at 37°C for 48 hours. Cell viability was determined using luciferase reporter ATP-Lite kits (PerkinElmer). As described for the infectivity assays, drug-free reference wells were normalized to 100%, and viabilities at different drug concentrations were determined as a percentage of these references. Data were plotted and analyzed in the same manner as the IC50 data, with the inflection points of the curves reported as CC50.

[5] = system: HOS cells; test: cytotoxicity assay (ATP-Lite cell viability); assay type: cell-based, human; settings: for Therapeutic Index (T.I.): ratio of CC50/EC50 (WT); for CC50: HOS cells, 48 hours, SD in parentheses
Method: as §4

[6] = system: viral vector with Y181C mutant HIV-1 RT; test: single-round infectivity assay, luciferase reporter, Y181C RT vector; assay type: cell-based; settings: Human immunodeficiency virus 1; HOS cells, reduction of luciferase reporter activity, SD in parentheses
Source text: as §1, §2, §3

[7] = system: viral vector with Y188L mutant HIV-1 RT; test: single-round infectivity assay, luciferase reporter, Y188L RT vector; assay type: cell-based; settings: Human immunodeficiency virus 1; HOS cells, reduction of luciferase reporter activity, SD in parentheses
Source text: as §1, §2, §3

[8] = system: viral vector with L100I mutant HIV-1 RT; test: single-round infectivity assay, luciferase reporter, L100I RT vector; assay type: cell-based; settings: Human immunodeficiency virus 1; broader panel, SD in parentheses
Source text: as §1, §2, §3

[9] = system: viral vector with K103N/Y181C double mutant HIV-1 RT; test: single-round infectivity assay, luciferase reporter, K103N/Y181C RT vector; assay type: cell-based; settings: for EC50: Human immunodeficiency virus 1, broader panel, SD in parentheses; for fold resistance / loss of potency against K103N/Y181C double mutant: relative to WT
Source text: as §1, §2, §3

[10] = system: viral vector with K103N mutant HIV-1 RT; test: single-round infectivity assay, luciferase reporter, K103N RT vector; assay type: cell-based; settings: Human immunodeficiency virus 1; HOS cells, reduction of luciferase reporter activity, SD in parentheses
Source text: as §1, §2, §3

[11] = system: viral vector with V106A mutant HIV-1 RT; test: single-round infectivity assay, luciferase reporter, V106A RT vector; assay type: cell-based; settings: Human immunodeficiency virus 1; broader panel, SD in parentheses
Source text: as §1, §2, §3

[12] = Human immunodeficiency virus 1, broader panel table, read-out: EC50 WT (Table S1)

Row | Structure (SMILES) | EC50 [1, 12] [nM] | EC50 [2] [nM] | EC50 [3] [nM] | CC50 at 48 h [4] [nM] | Therapeutic Index (T.I.) [5] | EC50 [6] [nM] | EC50 [7] [nM] | EC50 [8] [nM] | EC50 [9] [nM] | EC50 [10] [nM] | EC50 [11] [nM] | CC50 [5] [nM] | fold resistance / loss of potency against K103N/Y181C double mutant [9] | loss of potency against E138K [2] | EC50 fold greater than that of 7 against K103N/Y181C [9] | EC50 ([1]; HOS cells, reduction of luciferase reporter activity, read-out: EC50 WT) [nM] | EC50 ([1]; Human immunodeficiency virus 1, HOS, HOS cells, reduction of luciferase reporter activity, read-out: EC50 WT) [nM]
1 | Cc1cc(/C=C/C#N)cc(C)c1Nc1nc(Nc2ccc3ncsc3c2)c2nc[nH]c2n1 [Analogue 20] | 0.2 | 0.8 | 1.1 | 2000 | 1.0x10^4 | 1 | 19 | 0.2 | 60 | 0.1 | 2.1 | – | – | – | – | – | –
2 | Cc1cc(/C=C/C#N)cc(C)c1Nc1nc(Nc2ccc3scnc3c2)c2nc[nH]c2n1 [Analogue 21] | 0.1 | 1.5 | 0.6 | 38000 | 3.8x10^5 | 1 | 4.4 | 0.6 | > 100 | 0.6 | 4.6 | > 38000 | > 1000 fold | – | – | – | –
3 | Cc1cc(/C=C/C#N)cc(C)c1-n1cnc2cnc(Nc3ccc(C#N)cc3)nc21 [Analogue 27] | 0.2 | 0.7 | 0.4 | 42000 | 2.1x10^5 | 1.5 | 9.6 ± 2.2 | 0.2 | 72 | 0.4 | 0.2 | > 38000 | – | – | – | – | –
4 | Cc1cc(/C=C/C#N)cc(C)c1Nc1nc(Nc2ccc(C#N)cc2)ncc1N [Analogue 7] | 0.2 | 1.3 | 0.9 | 50000 | 2.5x10^5 | 1.1 | 2.3 ± 0.1 | 0.1 | 2.2 | 0.3 | 0.1 | > 38000 | – | four- to fourteen-fold | – | – | –
5 | Cc1cc(/C=C/C#N)cc(C)c1Nc1ncc(N)c(Nc2ccc(C#N)cc2)n1 [Analogue 9] | 0.7 | 2.6 | 2.8 | 19000 | 2.7x10^4 | 4.6 | 18 | 0.5 | 47 | 0.7 | 0.9 | – | ~ 67 fold | – | ~ 21 fold | – | –
6 | Cc1cc(/C=C/C#N)cc(C)c1Nc1ncc2ncn(-c3ccc(C#N)cc3)c2n1 [Analogue 26] | 4.5 | 25 | 17 | 21000 | 4.7x10^3 | 26 | 91 | 1.6 | > 100 | 6.5 | 6.5 | – | – | – | – | – | –
7 | Cc1cc(/C=C/C#N)cc(C)c1Nc1nc(Nc2ccc(C#N)cc2)c2nc[nH]c2n1 [Analogue 13] | 0.9 | 4.2 ± 0.3 | 1.3 | 15000 | 1.7x10^4 | 1.4 | 2 | 0.1 | 2.9 | 0.4 | 0.5 | – | – | four- to fourteen-fold | – | – | –
8 | Cc1cc(/C=C/C#N)cc(C)c1Nc1ccnc(Nc2ccc(C#N)cc2)n1 [Analogue 1, rilpivirine] | – | 0.3 | 0.4 | 10000 ± 600 | 2.5x10^4 | 1.3 | 2.3 ± 0.2 | < 0.1 | 3.1 | 0.2 | 0.1 | – | ~ 8 fold | – | – | 0.2 | 0.4 ± 0.02
9 | Cc1cc(/C=C/C#N)cc(C)c1Nc1nc(Nc2ccc(C#N)cc2)ncc1[N+](=O)[O-] [Analogue 6] | 0.2 | 1.4 | 0.4 | 24000 | 1.2x10^5 | 2.1 | 6.8 ± 0.5 | < 0.1 | 27 | 0.2 | 0.1 | – | – | – | – | – | –
